Experimental data: ChEMBL document CHEMBL1134304, “Discovery of novel p-arylthio cinnamides as antagonists of leukocyte function-associated antigen-1/intercellular adhesion molecule-1 interaction. 4. Structure-activity relationship of substituents on the benzene ring of the cinnamide” (J Med Chem, 2001)
Each block holds one compound with its values, some of them ahead of it.

Key:
[1] = target: T1, Integrin alpha-L (Homo sapiens, UniProt P20701); assay: Inhibition of intercellular adhesion molecule-1 (ICAM-1) binding to recombinant LFA-1
T1 sequence (P20701 whole entry): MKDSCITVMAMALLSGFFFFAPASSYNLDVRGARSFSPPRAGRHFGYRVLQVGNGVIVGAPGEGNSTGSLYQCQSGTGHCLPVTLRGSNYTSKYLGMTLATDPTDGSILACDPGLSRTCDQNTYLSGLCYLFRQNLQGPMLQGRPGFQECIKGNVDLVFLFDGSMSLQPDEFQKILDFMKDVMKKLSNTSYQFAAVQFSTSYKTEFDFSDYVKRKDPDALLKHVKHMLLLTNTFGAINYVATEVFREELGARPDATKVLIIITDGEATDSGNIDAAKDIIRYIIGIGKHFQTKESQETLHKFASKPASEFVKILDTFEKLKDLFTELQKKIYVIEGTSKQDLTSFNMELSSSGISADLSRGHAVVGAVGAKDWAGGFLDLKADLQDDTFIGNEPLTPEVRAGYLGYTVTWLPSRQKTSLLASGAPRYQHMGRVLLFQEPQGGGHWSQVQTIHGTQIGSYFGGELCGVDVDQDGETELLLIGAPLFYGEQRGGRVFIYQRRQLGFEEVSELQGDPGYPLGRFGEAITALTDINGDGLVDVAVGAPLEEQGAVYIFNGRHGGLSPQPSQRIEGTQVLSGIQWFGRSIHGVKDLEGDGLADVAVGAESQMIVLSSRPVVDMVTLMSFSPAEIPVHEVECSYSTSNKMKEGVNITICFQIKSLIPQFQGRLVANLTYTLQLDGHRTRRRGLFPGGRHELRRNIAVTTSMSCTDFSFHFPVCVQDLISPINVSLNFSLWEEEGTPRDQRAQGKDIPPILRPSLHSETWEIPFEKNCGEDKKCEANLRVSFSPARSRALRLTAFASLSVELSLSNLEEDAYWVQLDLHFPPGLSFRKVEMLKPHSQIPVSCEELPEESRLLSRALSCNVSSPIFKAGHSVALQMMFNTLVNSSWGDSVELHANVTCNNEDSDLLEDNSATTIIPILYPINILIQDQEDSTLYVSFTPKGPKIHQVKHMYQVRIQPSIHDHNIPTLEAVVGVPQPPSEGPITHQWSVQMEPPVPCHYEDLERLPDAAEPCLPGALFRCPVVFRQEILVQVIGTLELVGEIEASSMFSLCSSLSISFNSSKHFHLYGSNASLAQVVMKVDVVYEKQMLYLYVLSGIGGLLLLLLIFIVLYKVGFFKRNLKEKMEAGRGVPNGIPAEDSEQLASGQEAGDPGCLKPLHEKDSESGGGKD

[2] = target: T1, Integrin alpha-L; assay: Inhibition of intercellular adhesion molecule-1 (ICAM-1) binding to recombinant LFA-1, range(100-200)
[3] = target: T2, Intercellular adhesion molecule (ICAM-1), Integrin alpha-L/beta-2 (Homo sapiens, UniProt P05107+P20701); assay: Inhibition of LFA-1 mediated JY-8 cell adhesion to ICAM-1, range (100-600); assay type: functional, cell-based
T2 sequence (P05362 whole entry, one chain of several, further chain): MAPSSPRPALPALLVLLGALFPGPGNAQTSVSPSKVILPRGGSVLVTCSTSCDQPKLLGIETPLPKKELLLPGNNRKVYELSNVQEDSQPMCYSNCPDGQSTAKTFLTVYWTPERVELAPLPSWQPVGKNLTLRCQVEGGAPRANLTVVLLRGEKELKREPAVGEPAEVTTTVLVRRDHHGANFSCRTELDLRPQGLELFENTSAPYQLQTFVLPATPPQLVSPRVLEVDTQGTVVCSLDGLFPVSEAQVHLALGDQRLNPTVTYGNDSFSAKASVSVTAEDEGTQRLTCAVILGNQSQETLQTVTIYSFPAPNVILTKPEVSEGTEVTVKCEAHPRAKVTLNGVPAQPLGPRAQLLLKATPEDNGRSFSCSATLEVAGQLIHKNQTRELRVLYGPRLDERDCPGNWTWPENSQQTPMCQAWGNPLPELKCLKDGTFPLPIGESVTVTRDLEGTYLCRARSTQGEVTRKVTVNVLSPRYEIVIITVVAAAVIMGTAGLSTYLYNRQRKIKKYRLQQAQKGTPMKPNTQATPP
T2 sequence (P05107 whole entry, one chain of several): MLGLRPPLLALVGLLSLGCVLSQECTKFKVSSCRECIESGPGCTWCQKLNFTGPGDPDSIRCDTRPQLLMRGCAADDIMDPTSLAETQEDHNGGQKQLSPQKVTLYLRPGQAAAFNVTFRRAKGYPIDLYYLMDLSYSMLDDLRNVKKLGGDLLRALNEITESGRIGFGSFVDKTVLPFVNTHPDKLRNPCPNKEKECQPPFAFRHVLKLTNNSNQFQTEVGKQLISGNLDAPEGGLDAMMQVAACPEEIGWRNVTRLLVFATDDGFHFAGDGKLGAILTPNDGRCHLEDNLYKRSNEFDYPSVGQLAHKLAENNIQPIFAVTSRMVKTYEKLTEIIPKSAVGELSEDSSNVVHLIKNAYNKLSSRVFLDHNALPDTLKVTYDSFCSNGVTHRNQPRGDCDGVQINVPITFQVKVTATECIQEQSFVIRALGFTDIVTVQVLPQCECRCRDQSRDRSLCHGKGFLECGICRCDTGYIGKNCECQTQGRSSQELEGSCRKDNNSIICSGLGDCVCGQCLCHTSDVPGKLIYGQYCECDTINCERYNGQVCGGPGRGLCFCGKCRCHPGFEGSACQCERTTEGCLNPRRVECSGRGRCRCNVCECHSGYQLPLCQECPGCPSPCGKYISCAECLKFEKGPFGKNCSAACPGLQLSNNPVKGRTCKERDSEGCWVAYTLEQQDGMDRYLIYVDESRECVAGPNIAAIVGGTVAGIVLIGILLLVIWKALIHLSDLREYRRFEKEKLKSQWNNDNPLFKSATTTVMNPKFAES

[4] = target: T1, Integrin alpha-L; assay: Inhibition of intercellular adhesion molecule-1 (ICAM-1) binding to recombinant LFA-1, range(50-60)
[5] = target: T2, Intercellular adhesion molecule (ICAM-1), Integrin alpha-L/beta-2; assay: Inhibition of LFA-1 mediated JY-8 cell adhesion to ICAM-1, range (30-170); assay type: functional, cell-based
[6] = target: T1, Integrin alpha-L; assay: Inhibition of intercellular adhesion molecule-1 (ICAM-1) binding to recombinant LFA-1, range (2500-11500)
[7] = target: T1, Integrin alpha-L
[8] = target: T1, Integrin alpha-L; assay: Inhibition of intercellular adhesion molecule-1 (ICAM-1) binding to recombinant LFA-1, range (6-10)
[9] = target: T2, Intercellular adhesion molecule (ICAM-1), Integrin alpha-L/beta-2; assay: Inhibition of LFA-1 mediated JY-8 cell adhesion to ICAM-1, range (3-10); assay type: functional, cell-based
[10] = target: T1, Integrin alpha-L; assay: Inhibition of intercellular adhesion molecule-1 (ICAM-1) binding to recombinant LFA-1, range(140-150)
[11] = target: T2, Intercellular adhesion molecule (ICAM-1), Integrin alpha-L/beta-2; assay: Inhibition of LFA-1 mediated JY-8 cell adhesion to ICAM-1, range (2-30); assay type: functional, cell-based
[12] = target: T1, Integrin alpha-L; assay: Inhibition of intercellular adhesion molecule-1 (ICAM-1) binding to recombinant LFA-1, range (6-12)
[13] = target: T2, Intercellular adhesion molecule (ICAM-1), Integrin alpha-L/beta-2; assay: Inhibition of LFA-1 mediated JY-8 cell adhesion to ICAM-1; assay type: functional, cell-based
[14] = target: T1, Integrin alpha-L; assay: Inhibition of intercellular adhesion molecule-1 (ICAM-1) binding to recombinant LFA-1, range(6-13)
[15] = target: T2, Intercellular adhesion molecule (ICAM-1), Integrin alpha-L/beta-2; assay: Inhibition of LFA-1 mediated JY-8 cell adhesion to ICAM-1, range (6-10); assay type: functional, cell-based
[16] = target: T1, Integrin alpha-L; assay: Inhibition of intercellular adhesion molecule-1 (ICAM-1) binding to recombinant LFA-1, range(6-9)
[17] = target: T1, Integrin alpha-L; assay: Inhibition of intercellular adhesion molecule-1 (ICAM-1) binding to recombinant LFA-1, range(5-5)
[18] = target: T2, Intercellular adhesion molecule (ICAM-1), Integrin alpha-L/beta-2; assay: Inhibition of LFA-1 mediated JY-8 cell adhesion to ICAM-1, range(3-10); assay type: functional, cell-based
[19] = target: T1, Integrin alpha-L; remark: listed apart in the source
[20] = target: T1, Integrin alpha-L; assay: Inhibition of intercellular adhesion molecule-1 (ICAM-1) binding to recombinant LFA-1, range(120-140)
[21] = target: T1, Integrin alpha-L; assay: Inhibition of intercellular adhesion molecule-1 (ICAM-1) binding to recombinant LFA-1, range (5-8)
[22] = target: T2, Intercellular adhesion molecule (ICAM-1), Integrin alpha-L/beta-2; assay: Inhibition of LFA-1 mediated JY-8 cell adhesion to ICAM-1, range (2-9); assay type: functional, cell-based
[23] = target: T1, Integrin alpha-L; assay: Inhibition of intercellular adhesion molecule-1 (ICAM-1) binding to recombinant LFA-1, range (260-270)

SMILES: O=C(O)C1CCN(C(=O)/C=C/c2cc(Cl)c(Sc3ccc4c(c3)OCCO4)c(C(F)(F)F)c2)CC1
- IC50 [1]: > 20 µM

SMILES: COc1ccccc1Sc1ccc(/C=C/C(=O)N2CCN(C(C)=O)CC2)c(F)c1
- IC50 [6]: 3.9 µM

SMILES: O=C(O)C1CCN(C(=O)/C=C/c2ccc(Sc3ccc4c(c3)OCCO4)c3ccccc23)CC1
- IC50 [7]: 295 nM

SMILES: COc1ccccc1Sc1ccc(/C=C/C(=O)N2CCOCC2)c(C(F)(F)F)c1Cl
- IC50 [8]: 8 nM
- IC50 [9]: 5 nM

SMILES: COc1ccccc1Sc1ccc(/C=C/C(=O)N2CCC(C(=O)O)CC2)c(Cl)c1Cl
- IC50 [11]: 8 nM
- IC50 [12]: 8 nM

SMILES: COc1ccccc1Sc1ccc(/C=C/C(=O)N2CCOCC2)c(Cl)c1Cl
- IC50 [13]: 6 nM
- IC50 [14]: 10 nM

SMILES: COc1ccccc1Sc1ccc(/C=C/C(=O)N2CCC(C(=O)O)CC2)c(C)c1
- IC50 [1]: > 20 µM

SMILES: O=C(/C=C/c1ccc(Sc2ccc3c(c2)OCCO3)c(C(F)(F)F)c1)N1CCOCC1
- IC50 [19]: 30 nM

SMILES: CC(=O)N1CCN(C(=O)/C=C/c2ccc(Sc3ccc4c(c3)OCCO4)c([N+](=O)[O-])c2)CC1
- IC50 [20]: 139 nM

SMILES: COc1ccccc1Sc1ccc(/C=C/C(=O)N2CCC(C(=O)O)CC2)c(C(F)(F)F)c1Cl
- IC50 [21]: 6 nM
- IC50 [22]: 4 nM

SMILES: COc1ccccc1Sc1ccc(/C=C/C(=O)N2CCC(C(=O)O)CC2)c(C(F)(F)F)c1
- IC50 [23]: 265 nM

Next, values leading:

- IC50 [2]: 140 nM
- IC50 [3]: 130 nM
SMILES: CC(=O)N1CCN(C(=O)/C=C/c2ccc(Sc3ccc(Cl)cc3Cl)c(Cl)c2)CC1

- IC50 [4]: 55 nM
- IC50 [5]: 60 nM
SMILES: CC(=O)N1CCN(C(=O)/C=C/c2ccc(Sc3ccc4c(c3)OCCO4)c(C(F)(F)F)c2)CC1

- IC50 [10]: 145 nM
SMILES: O=C(O)C1CCN(C(=O)/C=C/c2ccc(Sc3ccc4c(c3)OCCO4)c(Cl)c2)CC1

- IC50 [1]: > 20 µM
SMILES: COc1ccccc1Sc1cc(Cl)c(/C=C/C(=O)N2CCC(C(=O)O)CC2)cc1Cl

- IC50 [15]: 8 nM
- IC50 [16]: 7 nM
SMILES: CC(=O)N1CCN(C(=O)/C=C/c2ccc(Sc3ccc4c(c3)OCCO4)c(Cl)c2Cl)CC1

- IC50 [17]: 5 nM
- IC50 [18]: 5 nM
SMILES: Cn1ccc2cc(Sc3ccc(/C=C/C(=O)N4CCC(C(=O)O)CC4)c(C(F)(F)F)c3C(F)(F)F)ccc21

- IC50 [1]: 9.1 µM
SMILES: O=C(/C=C/c1ccc(Sc2cccc(Cl)c2Cl)cc1)N1CCOCC1
